This is an account of results in patent US10231956B2, “3-(1H-pyrrolo[3,2-C]pyridin-2-YL)-1 H-pyrazolo[4,3-B]pyridines and therapeutic uses thereof” (Samumed, LLC, priority 2015, dated 2019).

Common to all, as to format: cell-based
The subject of test [1] is Wnt activity (Sp5-Luc reporter, SW480 colon carcinoma cells). Kind of test: Sp5-Luc reporter gene screening assay for Wnt activity in SW480 cells. The note with it: Homo sapiens, luminescence, overnight incubation. An excerpt: The screening assay for Wnt activity is described as follows. Reporter cell lines can be generated by stably transducing cancer cell lines (e.g., colon cancer) or primary cells (e.g., IEC-6 intestinal cells) with a lentiviral construct that includes a Wnt-responsive promoter driving expression of the firefly luciferase gene.
SW480 colon carcinoma cells were transduced with a lentiviral vector expressing luciferase with a human Sp5 promoter consisting of a sequence of eight TCF/LEF binding sites. SW480 cells stably expressing the Sp5-Luc reporter gene and a hygromycin resistance gene were selected by treatment with 150 μg/mL of hygromycin for 7 days. These stably transduced SW480 cells were expanded in cell culture and used for all further screening activities. Each compound was dissolved in DMSO as a 10 mM stock and used to prepare compound source plates. Serial dilution (1:3, 10-point dose-response curves starting from 10 μM) and compound transfer was performed using the ECHO 550 (Labcyte, Sunnyvale, Calif.) into 384-well white solid bottom assay plates (Greiner Bio-One) with appropriate DMSO backfill for a final DMSO concentration of 0.1%. For Sp5-Luc reporter gene assays, the cells were plated at 4,000 cells/well in 384-well plates with medium containing 1% fetal bovine serum and incubated overnight at 37° C. and 5% CO2. Following incubation, 20 μl of BrightGlo luminescence reagent (Promega) was added to each well of the 384-well assay plates. The plates were placed on an orbital shaker for 2 min and then luminescence was quantified using the Envision (Perkin Elmer) plate reader. Readings were normalized to DMSO only treated cells, and normalized activities were utilized for EC50 calculations using the dose-response log (inhibitor) vs. response-variable slope (four parameters) nonlinear regression feature available in GraphPad Prism 5.0 (or Dotmatics). For EC50 of >10 μM, the percent inhibition at 10 μM is provided.

The subject of the next test is SW480 colon cancer cells. Kind of test: Cell viability assay (CellTiter-Blue) in SW480 colon cancer cells. The note with it: Homo sapiens, 96 h, four days, CellTiter-Blue. The procedure:
Representative compounds were screened using the following assay procedure to assess the effect on cell viability as described below.
Each compound was dissolved in DMSO as a 10 mM stock and used to prepare compound source plates. Serial dilution (1:3, 8-point dose-response curves from 10 μM to 0.0045 μM) and compound transfer was performed using the ECHO 550 (Labcyte, Sunnyvale, Calif.) into 96-well clear bottom, black-walled plates (Corning-Costar).
Approximately 2×10^3 SW480 colon cancer cells were seeded into each well and allowed to incubate in the presence or absence of compound for four days at 37° C./5% CO2. Eight replicates of DMSO-treated cells served as controls and cells treated with compound were performed in duplicate.
After incubation, 20 μL of CellTiter-Blue (Promega) was added to each well allowed to incubate for approximately 3 hours. This reagent was a buffered solution which contains resazurin, metabolically active cells were able to reduce rezarurin (blue) into resorufin (pink) which was highly fluorescent. This measured fluorescence was used as a readout for cell viability.
After incubation, the plates were read at Ex 560 nm Em 590 nm (Cytation 3, BioTek). Dose-response curves were generated and EC50 concentration values were calculated using non-linear regression curve fit in the GraphPad Prism (San Diego, Calif.) or Dotmatics' Studies Software (Bishops Stortford, UK). For EC50 of >10 μM, the percent inhibition at 10 μM is provided.

In test [2] the test system is primary human fibroblasts derived from IPF patients (LL29 cells). As to the kind of experiment: Inhibition of fibrotic process: αSMA staining in TGF-β1 treated LL29 fibroblasts. Particulars: Fibroblast, 96 h, TGF-β1 20 ng/mL, 4 days, % cells positive for αSMA. An excerpt: Representative compounds were screened using primary human fibroblasts (derived from IPF patients) treated with TGF-β1 to determine their ability to inhibit the fibrotic process.
Human Fibroblast Cell Culture: Primary human fibroblasts derived from IPF patients (LL29 cells) [^1Xiaoqiu Liu, et. al., “Fibrotic Lung Fibroblasts Show Blunted Inhibition by cAMP Due to Deficient cAMP Response Element-Binding Protein Phosphorylation”, Journal of Pharmacology and Experimental Therapeutics (2005), 315(2), 678-687; ^2Watts, K. L., et. al., “RhoA signaling modulates cyclin D1 expression in human lung fibroblasts; implications for idiopathic pulmonary fibrosis”, Respiratory Research (2006), 7(1), 88] were obtained from American Type Culture Collection (ATCC) and expanded in F12 medium supplemented with 15% Fetal Bovine Serum and Penicillin/Streptomycin.
Compound Screening: Each compound was dissolved in DMSO as a 10 mM stock and used to prepare compound source plates. Serial dilution (1:2, 11-point dose-response curves from […]) and compound transfer was performed using the ECHO 550 (Labcyte, Sunnyvale, Calif.) into 384-well clear bottom assay plates (Greiner Bio-One) with appropriate DMSO backfill for a final DMSO concentration of 0.1%. LL29 cells are plated at 1,500 cells/well in 80 μL/well F12 medium supplemented with 1% Fetal Bovine Serum. One hour after addition of the cells, TGF-β1 (Peprotech; 20 ng/mL) was added to the plates to induce fibrosis (ref. 1 and 2 above). Wells treated with TGF-β1 and containing DMSO were used as controls. Cells were incubated at 37° C. and 5% CO2 for 4 days. Following incubation for 4 days, SYTOX green nucleic acid stain (Life Technologies [Thermo Fisher Scientific]) was added to the wells at a final concentration of 1 μM and incubated at room temperature for 30 min. Cells were then fixed using 4% formaldehyde (Electron Microscopy Sciences), washed 3 times with PBS followed by blocking and permeabilization using 3% Bovine Serum Albumin (BSA; Sigma) and 0.3% Triton X-100 (Sigma) in PBS. Cells were then stained with antibody specific to α-smooth muscle actin (αSMA; Abcam) (ref. 1 and 2 above) in 3% Bovine Serum Albumin (BSA; Sigma) and 0.3% Triton X-100 (Sigma) in PBS, and incubated overnight at 4° C. Cells were then washed 3 times with PBS, followed by incubation with Alexa Flor-647 conjugated secondary antibody (Life Technologies [Thermo Fisher Scientific]) and DAPI at room temperature for 1 hour. Cells were then washed 3 times with PBS and plates were sealed for imaging. αSMA staining was imaged by excitation at 630 nm and emission at 665 nm and quantified using the Compartmental Analysis program on the CellInsight CX5 (Thermo Scientific). Dead or apoptotic cells were excluded from analysis based on positive SYTOX green staining. % of total cells positive for αSMA were counted in each well and normalized to the average of 11 wells treated with TGF-β1 on the same plate using Dotmatics' Studies Software. The normalized averages (fold change over untreated) of 3 replicate wells for each compound concentration were used to create dose-responses curves and EC50 values were calculated using non-linear regression curve fit in the Dotmatics' Studies Software. For EC50 of >10 μM, the percent inhibition at 10 μM is provided.

In another test the test system is IL-6. Kind of test: IL-6 inhibition in LPS-stimulated THP-1 cells (HTRF). Particulars: Homo sapiens, LPS 500 ng/mL, 22 hours, IL6 HTRF. Here is the method:
Human Monocyte Cell Culture: Human monocyte cell line (THP-1 cells; Catalog # TIB-202, ATCC, Manassas, Va.) were cultured in Roswell Park Memorial Institute (RPMI) 1640 Medium (Catalog #21870-100, Buffalo, N.Y.) with 1% L-glutamine, 1% HEPES, 1% Sodium Pyruvate, 2% Sodium Bicarbonate supplemented with 100 units/mL penicillin, 50 μg/mL streptomycin, 2-mercaptoethanol (0.05 mM) [basal medium] and 10% fetal bovine serum (Catalog #16140089, Life Technologies, Carlsbad, Calif.) at 37° C. and 5% CO2.
Compound Screening: THP-1 cells were cultured in basal media with 1% FBS for 24 hours before the start of the assay. Each compound was dissolved in DMSO as a 10 mM stock and used to prepare compound source plates. Serial dilution (1:3, 10-point dose-response curves starting from 1 μM) and compound transfer was performed using the ECHO 550 (Labcyte, Sunnyvale, Calif.) into 384-well white low volume assay plates (Greiner Bio-One) with appropriate DMSO backfill for a final DMSO concentration of 0.1%. THP-1 cells were plated at 5000 cells/well in the 384-well plates and incubated at 37° C. for 2 h. 500 ng/mL of LPS was added after 2 hours and cells were incubated for another 22 hours at 37° C. Plates were spun in a centrifuge for 1 minute at 10,000 rpm and a mixture of anti-IL6 XL665, and anti-IL6 Cryptate diluted in reconstitution buffer (Cisbio Inc.) was added to each well. Following incubation for 3 hrs at room temperature, Homogeneous Time-Resolved Fluorescence (HTRF) was measured using the Envision (Perkin Elmer) at 665 nm and […]. The ratio of fluorescence at 665 nm to 620 nm was used as a readout for IL6 quantification. All samples were processed in duplicate. Readings were normalized to DMSO treated cells and normalized activities were utilized for EC50 calculations using the dose-response log (inhibitor) vs. response-variable slope (four parameters) nonlinear regression feature available in GraphPad Prism 5.0 (or Dotmatics). For EC50 of >10 μM, the percent inhibition at 10 μM is provided.

For `c1cc2[nH]c(-c3n[nH]c4ccc(-c5cncc(OC6CCCCC6)c5)nc34)cc2c(-c2ccoc2)n1` [Compound 687, 5-(5-(Cyclohexyloxy)pyridin-3-yl)-3-(4-(furan-3-yl)-1H-pyrrolo[3,2-c]pyridin-2-yl)-1H-pyrazolo[4,3-b]pyridine], the EC50 (usually the concentration needed to bring the measured effect to its halfway point) in test [1] came out at 1010 nM; in the test with SW480 colon cancer cells it was 555 nM; in test [2], 452 nM; in the test on IL-6, 9020 nM.
For the molecule `Oc1cncc(-c2ccc3[nH]nc(-c4cc5c(-c6cccs6)nccc5[nH]4)c3n2)c1` [Compound 709, 5-(3-(4-(Thiophen-2-yl)-1H-pyrrolo[3,2-c]pyridin-2-yl)-1H-pyrazolo[4,3-b]pyridin-5-yl)pyridin-3-ol], the EC50 in test [1] is 150 nM; in the test with SW480 colon cancer cells, 457 nM; in test [2], 34 nM; in the test on IL-6, 1790 nM.
